Data as given in PubChem BioAssay AID270 (DTP/NCI, 2004).
Results filed as inconclusive are left out.

System: BDF1 mice, s.c. Lewis lung carcinoma, T/C %
Test: NCI In Vivo Anticancer Drug Screen. Data for tumor model Lewis Lung Carcinoma (subcutaneous) in B6D2F1 (BDF1) mice
Method in brief: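 Tumor-bearing mice were treated with test compound, and either survival or tumor size was recorded. Values are the treated-group measurement divided by that of the vehicle-treated control group.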

[1] = endpoint: mean tumor weight, dose: 25.0 mg/kg/injection, schedule: Q01DX011 (sc), vehicle: steriod suspending solution, higher = larger tumour
[2] = endpoint: mean tumor weight, dose: 50.0 mg/kg/injection, schedule: Q01DX011 (sc), vehicle: steriod suspending solution, higher = larger tumour
[3] = endpoint: median survival time, dose: 100.0 mg/kg/injection, schedule: Q01DX009 (ip), vehicle: saline with Tween-80, higher = longer survival

Q: `C[C@H](N)C(=O)N[C@@H]1[C@H]2C(=C(O)C[C@@H](O)[C@@H]2O)C(=O)O[C@@H]1C` was tested. Which T/C (endpoint: mean tumor weight, dose: 300.0 mg/kg/injection, schedule: Q01DX011 (ip), vehicle: saline, higher = larger tumour) did it give?
A: 83 % of control

Q: And the T/C (endpoint: mean tumor weight, dose: 600.0 mg/kg/injection, schedule: Q01DX011 (ip), vehicle: saline, higher = larger tumour)?
A: 60 % of control

Q: And the T/C (endpoint: mean tumor weight, dose: 1200.0 mg/kg/injection, schedule: Q01DX011 (ip), vehicle: saline, higher = larger tumour)?
A: 89 % of control

Q: Which T/C (endpoint: median survival time, dose: 0.78 mg/kg/injection, schedule: Q01DX009 (ip), vehicle: Klucel (hydroxypropylcellulose) (HPC), higher = longer survival) does the source give for `Nc1nc(=S)c2[nH]c(N=Nc3ccc(S(=O)(=O)Nc4ncccn4)cc3)nc2[nH]1` here?
A: 99 % of control

Q: What about the T/C (endpoint: median survival time, dose: 1.56 mg/kg/injection, schedule: Q01DX009 (ip), vehicle: Klucel (hydroxypropylcellulose) (HPC), higher = longer survival) of the same molecule?
A: 101 % of control

Q: What about the T/C (endpoint: median survival time, dose: 3.12 mg/kg/injection, schedule: Q01DX009 (ip), vehicle: Klucel (hydroxypropylcellulose) (HPC), higher = longer survival) of the same molecule?
A: 95 % of control

Q: And the T/C (endpoint: median survival time, dose: 6.25 mg/kg/injection, schedule: Q01DX009 (ip), vehicle: Klucel (hydroxypropylcellulose) (HPC), higher = longer survival)?
A: 105 % of control

Q: For `CC(=O)[C@@]1(O)CC[C@H]2[C@@H]3C[C@H](C)C4=CC(=O)C=C[C@]4(C)[C@@]3(F)[C@@H](O)C[C@@]21C`, which T/C [1] is on record?
A: 28 % of control

Q: And the T/C [2]?
A: 18 % of control

Q: With `O=NN(CCCl)C(=O)NC1CS(=O)(=O)CS(=O)(=O)C1` as the molecule, how does the T/C (endpoint: median survival time, dose: 5.3 mg/kg/injection, schedule: Q04DX004 (ip), vehicle: saline with Tween-80, higher = longer survival) read?
A: 82 % of control

Q: And the T/C (endpoint: median survival time, dose: 8.0 mg/kg/injection, schedule: Q04DX004 (ip), vehicle: saline with Tween-80, higher = longer survival)?
A: 151 % of control

Q: What about the T/C (endpoint: median survival time, dose: 12.0 mg/kg/injection, schedule: Q04DX004 (ip), vehicle: saline with Tween-80, higher = longer survival) of the same molecule?
A: 99 % of control

Q: What about the T/C (endpoint: median survival time, dose: 18.0 mg/kg/injection, schedule: Q04DX004 (ip), vehicle: saline with Tween-80, higher = longer survival) of the same molecule?
A: 118 % of control

Q: Which T/C (endpoint: mean tumor weight, dose: 50.0 mg/kg/injection, schedule: Q01DX009 (ip), vehicle: saline with Tween-80, higher = larger tumour) does the source give for `CO[C@H]1/C=C/O[C@@]2(C)Oc3c(C)c(O)c4c(O)c(c(/C=N/N5C(C)CN(Cc6ccccc6)CC5C)c(O)c4c3C2=O)NC(=O)/C(C)=C\C=C\[C@H](C)[C@H](O)[C@@H](C)[C@@H](O)[C@@H](C)[C@H](OC(C)=O)[C@@H]1C` (stereo partly specified) here?
A: 112 % of control

Q: And the T/C (endpoint: mean tumor weight, dose: 100.0 mg/kg/injection, schedule: Q01DX009 (ip), vehicle: saline with Tween-80, higher = larger tumour)?
A: 93 % of control

Q: And the T/C (endpoint: mean tumor weight, dose: 200.0 mg/kg/injection, schedule: Q01DX009 (ip), vehicle: saline with Tween-80, higher = larger tumour)?
A: 65 % of control

Q: What about the T/C (endpoint: mean tumor weight, dose: 400.0 mg/kg/injection, schedule: Q01DX009 (ip), vehicle: saline with Tween-80, higher = larger tumour) of the same molecule?
A: 47 % of control

Q: And the T/C (endpoint: median survival time, dose: 1.6 mg/kg/injection, schedule: Q02DX Z (oral), vehicle: Klucel (hydroxypropylcellulose) (HPC), higher = longer survival)?
A: 95 % of control

Q: And the T/C (endpoint: median survival time, dose: 3.12 mg/kg/injection, schedule: Q02DX Z (oral), vehicle: Klucel (hydroxypropylcellulose) (HPC), higher = longer survival)?
A: 91 % of control

Q: What about the T/C (endpoint: median survival time, dose: 12.5 mg/kg/injection, schedule: Q02DX Z (oral), vehicle: Klucel (hydroxypropylcellulose) (HPC), higher = longer survival) of the same molecule?
A: 87 % of control

Q: What about the T/C (endpoint: median survival time, dose: 25.0 mg/kg/injection, schedule: Q02DX Z (oral), vehicle: Klucel (hydroxypropylcellulose) (HPC), higher = longer survival) of the same molecule?
A: 91 % of control

Q: And the T/C (endpoint: median survival time, dose: 50.0 mg/kg/injection, schedule: Q02DX Z (oral), vehicle: Klucel (hydroxypropylcellulose) (HPC), higher = longer survival)?
A: 95 % of control

Q: What about the T/C [3] of the same molecule?
A: 112 % of control

Q: What about the T/C (endpoint: median survival time, dose: 100.0 mg/kg/injection, schedule: Q02DX Z (oral), vehicle: Klucel (hydroxypropylcellulose) (HPC), higher = longer survival) of the same molecule?
A: 94 % of control

Q: And the T/C (endpoint: median survival time, dose: 200.0 mg/kg/injection, schedule: Q01DX009 (ip), vehicle: saline with Tween-80, higher = longer survival)?
A: 100 % of control

Q: And the T/C (endpoint: median survival time, dose: 200.0 mg/kg/injection, schedule: Q02DX Z (oral), vehicle: Klucel (hydroxypropylcellulose) (HPC), higher = longer survival)?
A: 102 % of control

Q: What does the source list for `CCCCn1cnc2c(SC)ncnc21`?
A: T/C (endpoint: median survival time, dose: 25.0 mg/kg/injection, schedule: Q01DX009 (ip), vehicle: saline with Tween-80, higher = longer survival): 89 % of control; T/C (endpoint: median survival time, dose: 50.0 mg/kg/injection, schedule: Q01DX009 (ip), vehicle: saline with Tween-80, higher = longer survival): 94 % of control; T/C [3]: 94 % of control

Q: `C[C@]12CCC(=O)C=C1CC[C@@H]1[C@@H]2[C@@H](O)C[C@@]2(C)[C@H]1CC[C@]2(O)C(=O)COC(=O)c1ccc([N+](=O)[O-])cc1Cl` was tested. Which T/C [1] did it give?
A: 65 % of control

Q: What about the T/C [2] of the same molecule?
A: 71 % of control

Q: What about the T/C (endpoint: mean tumor weight, dose: 100.0 mg/kg/injection, schedule: Q01DX011 (sc), vehicle: steriod suspending solution, higher = larger tumour) of the same molecule?
A: 47 % of control

Q: And the T/C (endpoint: mean tumor weight, dose: 200.0 mg/kg/injection, schedule: Q01DX011 (sc), vehicle: steriod suspending solution, higher = larger tumour)?
A: 53 % of control

Q: And the T/C (endpoint: mean tumor weight, dose: 250.0 mg/kg/injection, schedule: Q01DX011 (sc), vehicle: steriod suspending solution, higher = larger tumour)?
A: 18 % of control

Q: What about the T/C (endpoint: mean tumor weight, dose: 500.0 mg/kg/injection, schedule: Q01DX011 (sc), vehicle: steriod suspending solution, higher = larger tumour) of the same molecule?
A: 25 % of control

Q: What about the T/C (endpoint: mean tumor weight, dose: 750.0 mg/kg/injection, schedule: Q01DX011 (sc), vehicle: steriod suspending solution, higher = larger tumour) of the same molecule?
A: 13 % of control
